Reference: PMC10967822, “Antimicrobial Indole-3-Carboxamido-Polyamine Conjugates Target Bacterial Membranes and Are Antibiotic Potentiators” (Biomolecules, 2024)
In brackets after ≈: the same amount, converted by molar mass. Read-outs that look alike come from different tables or passages of the source. Marks after values point to notes of the source that are not given here.

Experiments:
S. aureus ATCC 25923 = assay: MIC, broth dilution, S. aureus; type: cell-based, Staphylococcus aureus; details: Staphylococcus aureus, ATCC25923; S. aureus ATCC 25923, 18 h; read-out: MIC Sa
P. aeruginosa ATCC 27853 [1] = assay: MIC, broth dilution, P. aeruginosa; type: cell-based, Pseudomonas aeruginosa; details: P. aeruginosa ATCC 27853, 18 h, read-out: MIC Pa
A. baumannii ATCC 19606 = assay: MIC, broth microdilution (CO-ADD), A. baumannii; type: cell-based, Acinetobacter baumannii
MRSA ATCC 43300 = assay: MIC, broth microdilution (CO-ADD), MRSA; type: cell-based, methicillin-resistant S. aureus; details: Staphylococcus aureus, read-out: MIC MRSA
[2] = test system: K. pneumoniae ATCC 700603; assay: MIC, broth microdilution (CO-ADD), K. pneumoniae; details: top dose 32 µg/mL
E. coli ATCC 25922 [3] = assay: MIC, broth dilution, E. coli; type: cell-based, Escherichia coli; details: E. coli ATCC 25922, 18 h
C. albicans ATCC 90028 = assay: Antifungal MIC (CO-ADD), C. albicans; type: cell-based; details: Candida albicans, ATCC90028, top dose 32 µg/mL
Protocol: (§1) For the antifungal assay, fungi strains were cultured for 3 days on YPD agar at 30 °C. A yeast suspension of 1 × 10^6 to 5 × 10^6 CFU/mL was prepared from five colonies. These stock suspensions were diluted with a yeast nitrogen base (YNB) (Becton Dickinson, 233520, New South Wales, Australia) broth to a final concentration of 2.5 × 10^3 CFU/mL. […] The plates were covered and incubated at 35 °C for 36 h without shaking. C. albicans MICs were determined by measuring the absorbance at OD530. For C. neoformans, resazurin was added at a 0.006% final concentration to each well and incubated for a further 3 h before the MICs were determined by measuring the absorbance at OD570–600. […] Fluconazole was used as a positive fungal inhibitor standard for C. albicans and C. neoformans. […] The quality control (QC) of the assays was determined by the antimicrobial controls and the Z′-factor (using positive and negative controls).

human red blood cells = assay: Hemolytic assay; type: cell-based; details: 10% hemolytic activity, mean n = 2
Protocol: Human whole blood was washed three times with three volumes of 0.9% NaCl and then resuspended in the same solution to a concentration of 0.5 × 10^8 cells/mL, as determined by the manual cell count in a Neubauer hemocytometer. The washed cells were then added to the 384-well compound-containing plates for a final volume of 50 μL. After a 10 min shake on a plate shaker, the plates were then incubated for 1 h at 37 °C. After incubation, the plates were centrifuged at 1000× g for 10 min to pellet cells and debris; 25 μL of the supernatant was then transferred to a polystyrene 384-well assay plate. Hemolysis was determined by measuring the supernatant absorbance at […] (OD405). The absorbance was measured using a Tecan M1000 Pro monochromator plate reader. HC10 and HC50 (concentrations at 10% and 50% hemolysis, respectively) were calculated by a curve fitting the inhibition values vs. log (concentration) using a sigmoidal dose–response function with variable fitting values for the top, bottom, and slope.

P. aeruginosa ATCC 27853 [4] = assay: Doxycycline potentiation against P. aeruginosa; type: cell-based, Pseudomonas aeruginosa; details: doxycycline at 2 µg/mL (4.5 µM); for Dox/Pa fold-change (intrinsic MIC / combination MIC): P. aeruginosa ATCC 27853; for Dox/Pa: concentration required to restore doxycycline activity (combination MIC): P. aeruginosa ATCC 27853, mean n = 3
From the text: (§2) These measurements were independently repeated in triplicate.

[5] = Cytotoxicity assay (resazurin); type: cell-based; details: human, HEK293 cells, mean n = 2
E. coli ATCC 25922 [6] = assay: Erythromycin potentiation against E. coli; type: cell-based, Escherichia coli; details: erythromycin at 2 µg/mL (2.7 µM); for Erythro/Ec fold-change (intrinsic MIC / combination MIC): E. coli; for Erythro/Ec: concentration required to restore erythromycin activity (combination MIC): mean n = 3
From the text: as §2

[7] = test system: C. neoformans ATCC 208821; assay: Antifungal MIC (CO-ADD), C. neoformans; type: cell-based; details: Cryptococcus neoformans, ATCC208821, top dose 32 µg/mL
Protocol: as §1

[8] = Pseudomonas aeruginosa, ATCC27853
[9] = Acinetobacter baumannii, ATCC19606, top dose 32 µg/mL
[10] = MRSA ATCC 43300, top dose 32 µg/mL

Compound	MIC (S. aureus ATCC 25923) [µM]	MIC (P. aeruginosa ATCC 27853 [1]; [8]) [µM]	MIC (A. baumannii ATCC 19606; [9]) [µM]	MIC (MRSA ATCC 43300; [10]) [µM]	MIC Kp [2]	MIC (E. coli ATCC 25922 [3]; Escherichia coli, ATCC25922) [µM]	MIC (C. albicans ATCC 90028) [µM]	Dox/Pa fold-change (intrinsic MIC / combination MIC) (P. aeruginosa ATCC 27853 [4]) [fold]	Dox/Pa: concentration required to restore doxycycline activity (combination MIC) (P. aeruginosa ATCC 27853 [4]) [µM]	Erythro/Ec fold-change (intrinsic MIC / combination MIC) (E. coli ATCC 25922 [6]) [fold]	Erythro/Ec: concentration required to restore erythromycin activity (combination MIC) (E. coli ATCC 25922 [6]) [µM]	MIC [7] [µM]	Hemolysis HC10 (human red blood cells) [µM]	IC50 at 20 h [5] [µM]	MIC (MRSA ATCC 43300) [µM]	MIC (P. aeruginosa ATCC 27853 [1]) [µM]	MIC (A. baumannii ATCC 19606; top dose 32 µg/mL) [µM]	MIC (E. coli ATCC 25922 [3]) [µM]
O=C(N[C@H](CO)[C@H](O)c1ccc([N+](=O)[O-])cc1)C(Cl)Cl [Chloramphenicol, reference compound]	1.5 to 3 (≈ 0.485 to 0.969 µg/mL)	–	–	–	–	–	–	–	–	–	–	–	–	–	–	–	–	–
O=C(NCCCNCCCCNCCCNC(=O)c1c[nH]c2ccccc12)c1c[nH]c2ccccc12 [Compound 12a]	69.8 (≈ 34.1 µg/mL)	> 279	> 45	22.3 (≈ 10.9 µg/mL)	>45 ^j µM	139 (≈ 67.9 µg/mL)	> 45	> 8	34.9	4	34.9	–	>45	> 45	–	–	–	–
COc1ccc2[nH]cc(C(=O)NCCCNCCCCCCCNCCCNC(=O)c3c[nH]c4ccc(OC)cc34)c2c1.O=C(O)C(F)(F)F.O=C(O)C(F)(F)F [Compound 14c]	122	> 244	> 39	> 39	>39 µM	> 244	> 39	> 4	61.1	> 1	244	–	>39	> 39	–	–	–	–
OC(Cn1cncn1)(Cn1cncn1)c1ccc(F)cc1F [Fluconazole, reference compound]	–	–	–	–	–	–	0.4 (≈ 0.123 µg/mL)	–	–	–	–	26 (≈ 7.96 µg/mL)	–	–	–	–	–	–
CN[C@H](CC(C)C)C(=O)N[C@H]1C(=O)N[C@@H](CC(N)=O)C(=O)N[C@H]2C(=O)N[C@H]3C(=O)N[C@H](C(=O)N[C@H](C(=O)O)c4cc(O)cc(O)c4-c4cc3ccc4O)[C@H](O)c3ccc(c(Cl)c3)Oc3cc2cc(c3O[C@@H]2O[C@H](CO)[C@@H](O)[C@H](O)[C@H]2O[C@H]2C[C@](C)(N)[C@H](O)[C@H](C)O2)Oc2ccc(cc2Cl)[C@H]1O [Vancomycin, reference compound]	–	–	–	–	–	–	–	–	–	–	–	–	–	–	0.7 (≈ 1.01 µg/mL)	–	–	–
C[C@H]1c2cccc(O)c2C(=O)C2=C(O)[C@]3(O)C(=O)C(C(N)=O)=C(O)[C@@H](N(C)C)[C@@H]3[C@@H](O)[C@@H]21 [doxycycline, reference compound]	–	90 (≈ 40 µg/mL)	–	–	–	–	–	–	–	–	–	–	–	–	–	–	–	–
CC[C@H]1OC(=O)[C@H](C)[C@@H](O[C@H]2C[C@@](C)(OC)[C@@H](O)[C@H](C)O2)[C@H](C)[C@@H](O[C@@H]2O[C@H](C)C[C@H](N(C)C)[C@H]2O)[C@](C)(O)C[C@@H](C)C(=O)[C@H](C)[C@@H](O)[C@]1(C)O [erythromycin, reference compound]	–	–	–	–	–	174 (≈ 128 µg/mL)	–	–	–	–	–	–	–	–	–	–	–	–
CC/C(=C(\c1ccccc1)c1ccc(OCCN(C)C)cc1)c1ccccc1 [tamoxifen, reference compound]	–	–	–	–	–	–	–	–	–	–	–	–	–	24	–	–	–	–
Colistin [reference compound]	–	–	–	–	0.2 µM	–	–	–	–	–	–	–	–	–	–	1	0.2	2

More lines, main results first:

MIC (S. aureus ATCC 25923) [µM]	MIC (P. aeruginosa ATCC 27853 [1]; [8]) [µM]	MIC (A. baumannii ATCC 19606; [9]) [µM]	MIC (MRSA ATCC 43300; [10]) [µM]	MIC Kp [2]	MIC (E. coli ATCC 25922 [3]; Escherichia coli, ATCC25922) [µM]	MIC (C. albicans ATCC 90028) [µM]	Dox/Pa fold-change (intrinsic MIC / combination MIC) (P. aeruginosa ATCC 27853 [4]) [fold]	Dox/Pa: concentration required to restore doxycycline activity (combination MIC) (P. aeruginosa ATCC 27853 [4]) [µM]	Erythro/Ec fold-change (intrinsic MIC / combination MIC) (E. coli ATCC 25922 [6]) [fold]	Erythro/Ec: concentration required to restore erythromycin activity (combination MIC) (E. coli ATCC 25922 [6]) [µM]	MIC [7] [µM]	Compound	Hemolysis HC10 (human red blood cells) [µM]	IC50 at 20 h [5] [µM]	MIC (MRSA ATCC 43300) [µM]	MIC (P. aeruginosa ATCC 27853 [1]) [µM]	MIC (A. baumannii ATCC 19606; top dose 32 µg/mL) [µM]	MIC (E. coli ATCC 25922 [3]) [µM]
64.7	> 259	> 41	≤ 0.32	>41 µM	32.4	> 41	> 8	32.3	–	–	≤ 0.32	O=C(NCCCNCCCCCCCCNCCCNC(=O)c1c[nH]c2ccccc12)c1c[nH]c2ccccc12.O=C(O)C(F)(F)F.O=C(O)C(F)(F)F [Compound 12d]	>41	> 41	–	–	–	–
257 (≈ 141 µg/mL)	> 257	> 41	10.3 (≈ 5.65 µg/mL)	>41 µM	257 (≈ 141 µg/mL)	> 41	> 4	64.4	1	257	–	COc1ccc2[nH]cc(C(=O)NCCCNCCCCNCCCNC(=O)c3c[nH]c4ccc(OC)cc34)c2c1 [Compound 14a]	>41	> 41	–	–	–	–
> 266	266 (≈ 140 µg/mL)	> 43	> 43	>43 µM	> 266	> 43	1	266	1	> 266	–	O=C(NCCCNCCCCNCCCNC(=O)c1c[nH]c2c(F)cccc12)c1c[nH]c2c(F)cccc12 [Compound 16a]	>43	> 43	–	–	–	–
256 (≈ 141 µg/mL)	> 256	> 41	> 41	>41 µM	256 (≈ 141 µg/mL)	> 41	> 4	64.0	2	128	–	O=C(NCCCNCCCCCCNCCCNC(=O)c1c[nH]c2c(F)cccc12)c1c[nH]c2c(F)cccc12 [Compound 16b]	>41	> 41	–	–	–	–
129 (≈ 70.8 µg/mL)	> 257	> 41	20.6 (≈ 11.3 µg/mL)	>41 µM	> 257	> 41	> 2	129	1	> 257	–	COc1cccc2c(C(=O)NCCCNCCCCNCCCNC(=O)c3c[nH]c4c(OC)cccc34)c[nH]c12 [Compound 17a]	>41	> 41	–	–	–	–
124 (≈ 71.5 µg/mL)	> 248	> 40	> 40	>40 µM	248 (≈ 143 µg/mL)	> 40	1	> 248	1	> 248	–	COc1cccc2c(C(=O)NCCCNCCCCCCNCCCNC(=O)c3c[nH]c4c(OC)cccc34)c[nH]c12 [Compound 17b]	>40	> 40	–	–	–	–
> 269	269 (≈ 139 µg/mL)	> 43	21.5 (≈ 11.1 µg/mL)	>43 µM	> 269	> 43	1	269	1	> 269	–	Cc1cccc2c(C(=O)NCCCNCCCCNCCCNC(=O)c3c[nH]c4c(C)cccc34)c[nH]c12 [Compound 18a]	>43	> 43	–	–	–	–
21.5 (≈ 12.5 µg/mL)	21.5 (≈ 12.5 µg/mL)	–	–	–	21.5 (≈ 12.5 µg/mL)	–	–	–	–	–	–	[H]/N=C(/N)N[C@H]1[C@H](O)[C@@H](O)[C@H](O[C@@H]2O[C@@H](C)[C@](O)(C=O)[C@H]2O[C@@H]2O[C@@H](CO)[C@H](O)[C@@H](O)[C@@H]2NC)[C@@H](N/C(N)=N\[H])[C@@H]1O [Streptomycin, reference compound]	–	–	–	–	–	–
